System: K24384-001-R-PDC complex spheroids, viability
Test: Anticancer human tumor K24384-001-R-PDC patient-derived pancreatic adenocarcinoma cell line growth inhibition [GQUAD]
Settings: for IC50: curve of first compound; for viability, T/C: stronger effect = lower value
From the text: DNA G-quadruplex Stabilizer Agents in Combinations in Complex Spheroids
A high-throughput screen of multi-cell type tumor spheroids was designed to identify active combinations of DNA G-quadruplex stabilizer agents and targeted small molecules. Complex spheroids include a stromal component modeled by human endothelial cells (HUVEC) and fibroblasts modeled by human mesenchymal stem cells (MSCs). The concentration ranges selected for each drug and investigational agent were based upon clinically achievable concentrations if the clinical Cmax of the agent was known.
Compounds. The drugs and investigational agents: pidnarulex (CX-5461; NSC782164), APTO-253 (NSC789042), BRACO-19 (NSC847499), peposertib (NSC802822), ceralasertib (NSC780249), elimusertib (NSC800525), camonsertib (NSC841442), AZD-1390 (NSC803789), olaparib (NSC753686), talazoparib (NSC767125), ART-558 (NSC835418), sotorasib (NSC818433), MRTX-1133 (NSC836407), SN-38 (NSC673596), topotecan (NSC609699), etoposide (NSC141540), doxorubicin (NSC123127), gemcitabine (NSC613327), 5-fluorouracil (NSC19893), paclitaxel (NSC125973), vemurafenib (NSC761431), panobinostat (NSC761190), R-306465 (JNJ-16241199; NSC773264), adavosertib (NSC754352), TP-3654 (NSC805149), carboplatin (NSC241240), KSQ-4279 (NSC840948), and staurosporine (NSC755774) were obtained from the National Cancer Institute (NCI) Developmental Therapeutics Program Chemical Repository (34). The FDA-approved anticancer drug set is available from the NCI Developmental Therapeutics Program. […] The stock solutions were prepared in dimethyl sulfoxide (DMSO, Sigma-Aldrich, St. Louis, MO, cat. D2650) at 800-fold the tested concentration and stored at -70 degrees C prior to their use. All drugs and investigational agents were tested over a range starting from a high concentration at or near the clinical Cmax and decreasing in half-log increments. If the clinical Cmax for an agent had not been determined, the highest concentration tested was 10 microM.
2.3 Cell Culture. All cells were maintained in an incubator at 37 degrees C and 5% CO2 with 95% humidity. The PDC lines were cultured according to standard operating procedures established by the NCI PDMR. All PDCs were thawed and cultured in Matrigel-coated flasks prepared with a working solution of 1X Ham's F-12 nutrient mix, without supplementation (Invitrogen, cat. 11765054), 100 U/mL penicillin-streptomycin (Invitrogen, cat. 15140122), and 2.5% Matrigel (Corning Inc., cat. 354248) for the first three passages. The 857933-349-R-J2-PDC line was cultured in 6C/Colon 1B media, which includes advanced DMEM/F-12 (Thermo Fisher Scientific, cat. 12634028), 10 mM HEPES (Thermo Fisher Scientific, cat. 15630080), 1X GlutaMAX supplement (Thermo Fisher Scientific, cat. 35050061), 0.1 mg/mL primocin (InvivoGen, cat. ant-pm-2), 10% defined fetal bovine serum, heat inactivated (HyClone Laboratories Inc., cat. SH30070.03HI), 50% L-WRN conditioned media (ATCC, cat. CRL-3276), 1.25 mM N-Acetyl-L-cysteine (Sigma-Aldrich, cat. A9165), 10 mM nicotinamide (Sigma-Aldrich, cat. N0636), 1X B-27 supplement (Thermo Fisher Scientific, cat. 17504044), 1X N-2 supplement (Thermo Fisher Scientific, cat. 17502048), 10 microM Y-27632 dihydrochloride (Tocris Bioscience, cat. 1254), and 50 ng/mL human EGF recombinant protein (Thermo Fisher Scientific, cat. PHG0311). The 485176-168-R4-J1-PDC line was cultured in Panc media, which includes all 6C/Colon 1B media components plus 100 ng/mL human FGF-10 (Thermo Fisher Scientific, cat. 100-26), 500 nM SB-431542 (Selleckchem, cat. S1067), and gastrin (Tocris, cat. 3006).
[…]

[1] = second compound 0.0316 µM, first compound 0.0316 µM
[2] = second compound 0.0316 µM, first compound 0.1 µM
[3] = second compound 0.0316 µM, first compound 0.316 µM
[4] = second compound 0.0316 µM, first compound 1 µM
[5] = second compound 0.0316 µM, first compound 3.16 µM
[6] = second compound 0.0316 µM, first compound 10 µM
[7] = second compound 0.1 µM, first compound 0.0316 µM
[8] = second compound 0.1 µM, first compound 0.1 µM
[9] = second compound 0.1 µM, first compound 0.316 µM
[10] = second compound 0.1 µM, first compound 1 µM
[11] = second compound 0.1 µM, first compound 3.16 µM
[12] = second compound 0.1 µM, first compound 10 µM
[13] = second compound 0.316 µM, first compound 0.0316 µM
[14] = second compound 0.316 µM, first compound 0.1 µM
[15] = second compound 0.316 µM, first compound 0.316 µM
[16] = second compound 0.316 µM, first compound 1 µM
[17] = second compound 0.316 µM, first compound 3.16 µM
[18] = second compound 0.316 µM, first compound 10 µM
[19] = second compound 1 µM, first compound 0.0316 µM
[20] = second compound 1 µM, first compound 0.1 µM
[21] = second compound 1 µM, first compound 0.316 µM
[22] = second compound 1 µM, first compound 1 µM
[23] = second compound 1 µM, first compound 3.16 µM
[24] = second compound 1 µM, first compound 10 µM
[25] = second compound 3.16 µM, first compound 0.0316 µM
[26] = second compound 3.16 µM, first compound 0.1 µM
[27] = second compound 3.16 µM, first compound 0.316 µM
[28] = second compound 3.16 µM, first compound 1 µM
[29] = second compound 3.16 µM, first compound 3.16 µM
[30] = second compound 3.16 µM, first compound 10 µM
[31] = second compound 10 µM, first compound 0.0316 µM
[32] = second compound 10 µM, first compound 0.1 µM
[33] = second compound 10 µM, first compound 0.316 µM
[34] = second compound 10 µM, first compound 1 µM
[35] = second compound 10 µM, first compound 3.16 µM
[36] = second compound 10 µM, first compound 10 µM
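Further: spheroids exposed to compounds for seven days.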

For `CC1COCCN1c1cc(-c2ccnn2C)c2ccnc(-c3ccn[nH]3)c2n1` (stereo unspecified) + CN(C)c1ccc(Nc2c3ccc(NC(=O)CCN4CCCC4)cc3nc3cc(NC(=O)CCN4CCCC4)ccc23)cc1, the IC50 (second compound 0.0316 µM) was 72.2 nM, the IC50 (second compound 0.1 µM) was 89.1 nM and the IC50 (second compound 0.316 µM) was 131 nM. For the same molecule, the IC50 (second compound 1 µM) was 111 nM, the IC50 (second compound 3.16 µM) was 88.3 nM and the IC50 (second compound 10 µM) was 113 nM. For the same molecule, the viability, T/C [1] was 69.7%, the viability, T/C [2] was 41.9% and the viability, T/C [3] was 35.4%. The viability, T/C [4] was 24.4%, the viability, T/C [5] was 29.6% and the viability, T/C [6] was 32.9%. For the same molecule, the viability, T/C [7] was 67.6%, the viability, T/C [8] was 48% and the viability, T/C [9] was 27.2%. The viability, T/C [10] was 24.9%, the viability, T/C [11] was 30.9% and the viability, T/C [12] was 31.9%. The viability, T/C [13] was 79.2%, the viability, T/C [14] was 56.4% and the viability, T/C [15] was 26.1%. The viability, T/C [16] was 23.6%, the viability, T/C [17] was 33.6% and the viability, T/C [18] was 32.3%. It also gave a viability, T/C [19] of 78.1%, a viability, T/C [20] of 52% and a viability, T/C [21] of 24.3%. For the same molecule, the viability, T/C [22] was 28.8%, the viability, T/C [23] was 34.2% and the viability, T/C [24] was 30.6%. For the same molecule, the viability, T/C [25] was 91.4%, the viability, T/C [26] was 44.7% and the viability, T/C [27] was 30.9%. For the same molecule, the viability, T/C [28] was 32.5%, the viability, T/C [29] was 30.8% and the viability, T/C [30] was 24.6%. For the same molecule, the viability, T/C [31] was 79.6%, the viability, T/C [32] was 49% and the viability, T/C [33] was 43.1%. It also gave a viability, T/C [34] of 30.6%, a viability, T/C [35] of 28.5% and a viability, T/C [36] of 31.7%.

With `CC1COCCN1c1cc(C2(S(C)(=N)=O)CC2)nc(-c2ccnc3[nH]ccc23)n1` (stereo unspecified) + CN(C)c1ccc(Nc2c3ccc(NC(=O)CCN4CCCC4)cc3nc3cc(NC(=O)CCN4CCCC4)ccc23)cc1 the IC50 (second compound 0.0316 µM) was 1530 nM, the IC50 (second compound 0.1 µM) was 1600 nM and the IC50 (second compound 0.316 µM) was 1710 nM. It also gave an IC50 (second compound 1 µM) of 1700 nM, an IC50 (second compound 3.16 µM) of 1680 nM and an IC50 (second compound 10 µM) of 1700 nM. The viability, T/C [1] was 95.2%, the viability, T/C [2] was 90.1% and the viability, T/C [3] was 113%. For the same molecule, the viability, T/C [4] was 64.1%, the viability, T/C [5] was 28.2% and the viability, T/C [6] was 24.2%. The viability, T/C [7] was 90.3%, the viability, T/C [8] was 115% and the viability, T/C [9] was 84.4%. The viability, T/C [10] was 60.9%, the viability, T/C [11] was 36.4% and the viability, T/C [12] was 23.2%. It also gave a viability, T/C [13] of 83.3%, a viability, T/C [14] of 92.9% and a viability, T/C [15] of 86.1%. It also gave a viability, T/C [16] of 56.9%, a viability, T/C [17] of 42.2% and a viability, T/C [18] of 26.1%. The viability, T/C [19] was 86.5%, the viability, T/C [20] was 104% and the viability, T/C [21] was 86.2%. The viability, T/C [22] was 62.2%, the viability, T/C [23] was 35.9% and the viability, T/C [24] was 32.1%. It also gave a viability, T/C [25] of 90.2%, a viability, T/C [26] of 98.6% and a viability, T/C [27] of 99.3%. For the same molecule, the viability, T/C [28] was 60.8%, the viability, T/C [29] was 39.6% and the viability, T/C [30] was 23.4%. The viability, T/C [31] was 91.6%, the viability, T/C [32] was 102% and the viability, T/C [33] was 86.9%. For the same molecule, the viability, T/C [34] was 62.9%, the viability, T/C [35] was 35.4% and the viability, T/C [36] was 28.2%.

`COc1ccc([C@@H](O)c2cc(-c3ncnc4cc(N5CCOCC5)ccc34)c(F)cc2Cl)nn1` + CN(C)c1ccc(Nc2c3ccc(NC(=O)CCN4CCCC4)cc3nc3cc(NC(=O)CCN4CCCC4)ccc23)cc1 showed an IC50 (second compound 0.0316 µM) of 2100 nM, an IC50 (second compound 0.1 µM) of 2600 nM and an IC50 (second compound 0.316 µM) of 1610 nM. It also gave an IC50 (second compound 1 µM) of 1930 nM, an IC50 (second compound 3.16 µM) of 2540 nM and an IC50 (second compound 10 µM) of 1080 nM. It also gave a viability, T/C [1] of 98.6%, a viability, T/C [2] of 86.4% and a viability, T/C [3] of 81.2%. It also gave a viability, T/C [4] of 58.7%, a viability, T/C [5] of 44.3% and a viability, T/C [6] of 36.5%. It also gave a viability, T/C [7] of 89.5%, a viability, T/C [8] of 96.5% and a viability, T/C [9] of 102%. The viability, T/C [10] was 76.6%, the viability, T/C [11] was 45.9% and the viability, T/C [12] was 34.9%. It also gave a viability, T/C [13] of 91.4%, a viability, T/C [14] of 109% and a viability, T/C [15] of 83.8%. It also gave a viability, T/C [16] of 56.8%, a viability, T/C [17] of 42.5% and a viability, T/C [18] of 25.8%. For the same molecule, the viability, T/C [19] was 82.1%, the viability, T/C [20] was 83.1% and the viability, T/C [21] was 84.8%. It also gave a viability, T/C [22] of 62.4%, a viability, T/C [23] of 40.3% and a viability, T/C [24] of 23.4%. For the same molecule, the viability, T/C [25] was 91.9%, the viability, T/C [26] was 95.4% and the viability, T/C [27] was 72.2%. The viability, T/C [28] was 75.5%, the viability, T/C [29] was 42.4% and the viability, T/C [30] was 22.5%. The viability, T/C [31] was 67.3%, the viability, T/C [32] was 73.6% and the viability, T/C [33] was 72.3%. For the same molecule, the viability, T/C [34] was 44.3%, the viability, T/C [35] was 34.3% and the viability, T/C [36] was 12.3%.

From PubChem BioAssay AID2060483 (Molecular Pharmacology Branch, DTP, NCI, 2025)
